Drawing on PubChem BioAssay (NCI), this text covers GI50 and TGI for eight compounds.

Each structure is given as a SMILES string.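 48-hour exposure; five concentrations; linearly interpolated endpoints. Abbreviation: GI50, concentration required for 50% inhibition of growth. TGI marks complete inhibition of growth.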

Experiment in all cases: inhibition of tumour cell growth, NCI panel, 48 h
Assay [1] concerns MDA-MB-435.
Assay [2] deals with NCI/ADR-RES ovarian.
Assay [3] has as its system HL-60(TB) leukemia.
The subject of assay [4] is UACC-62 melanoma.
Assay [5] concerns OVCAR-3 ovarian.
The test system of assay [6] is SK-MEL-28 melanoma.
Assay [7] has as its system COLO 205 colon.
Assay [8] deals with MDA-MB-231 breast.
Assay [9] concerns CAKI-1 renal.
For assay [10], the system named is UO-31 renal.

Regarding `FC(F)(F)c1[nH]ncc1-c1nc2ccc3[nH]ncc3c2c2c1CCCC2`, the GI50 in [1] is 1.78 µM; in assay [2] it was 2.49 µM; in [3], 2.09 µM; in assay [4], 1.02 µM; in assay [5] it was 2.66 µM; in [6], 1.41 µM. The GI50 in [7] is 1.54 µM; in assay [8] it was 1.84 µM; in assay [9], 1.06 µM; in assay [10] it was 1.3 µM. Also, the TGI in assay [1] came to 9.55 µM; in assay [2], 13.9 µM; in assay [3], 6.22 µM; in [4] it was 2.83 µM; in [5], 6.86 µM; in assay [6] it was 4.86 µM. The TGI in [7] was found to be 4.08 µM; in [8] it was 6.19 µM; in assay [9] it was 10.4 µM; in [10] it was 5 µM.

Regarding `CCCCCSC1C2C(=O)C(Br)=CC13CCNc1c(O)c4c5c(c13)=[N+]2CCC=5C=N4` (stereo not given), the GI50 in [1] is 0.304 µM; in assay [2], 4.42 µM; in assay [3], 0.671 µM; in [4] it was 0.952 µM; in assay [5], 0.405 µM; in [6] it was 2.12 µM. Moreover, the GI50 in assay [7] is 0.303 µM; in assay [8] it was 0.417 µM; in [9] it was 2.47 µM; in assay [10], 2.11 µM. Further, the TGI came to 0.571 µM in assay [1]; 16.7 µM in [2]; 2.4 µM in assay [3]; 3.75 µM in assay [4]; 1.44 µM in [5]; 4.55 µM in assay [6]. For the same compound, the TGI came to 0.613 µM in assay [7], 1.5 µM in assay [8], 4.79 µM in assay [9] and 4.42 µM in assay [10].

With `Nc1ncnc2nn(C3OC(CO)C(O)C3O)nc12` (stereo not given), the TGI is greater than 90 µM in assay [1]; greater than 86.8 µM in assay [2]; 23.6 µM in assay [3]; greater than 100 µM in assay [4]; greater than 41.1 µM in assay [5]; greater than 100 µM in assay [6]. Also, the TGI in assay [7] is 15.8 µM; in assay [8], greater than 25.2 µM; in assay [9], greater than 100 µM; in assay [10], 49 µM.

In the case of `CC1(C)N=C(N)N=C(N)N1c1ccc(Cl)c(Cl)c1`, the GI50 was 0.0644 µM in assay [1]; 43 µM in assay [2]; 6.27 µM in assay [3]; 0.612 µM in assay [4]; 5.27 µM in assay [5]; 11.7 µM in [6]. Moreover, the GI50 in assay [7] is 3.56 µM; in assay [8], greater than 100 µM; in assay [9], 12.5 µM; in assay [10], 13.5 µM. The TGI in [1], in [2], in [3], in [4], in assay [5] and in [6] was greater than 100 µM throughout. For the same compound, the TGI in [7], in assay [8], in [9] and in assay [10] was greater than 100 µM in each case.

Consider `CNC(=O)c1cc2c(Oc3ccc(NC(=S)NC(=O)Cc4ccccc4)cc3F)ccnc2cc1OC`, for which the GI50 was greater than 27.6 µM in [1]; 7.01 µM in assay [2]; greater than 100 µM in [3]; 3.43 µM in [4]; greater than 28.6 µM in assay [5]; greater than 100 µM in [6]. In addition, the GI50 in assay [7] is 5.37 µM; in assay [8], 3.87 µM; in assay [9], 4.23 µM; in [10], 2.56 µM. In addition, the TGI in assay [1], in [2], in [3], in assay [4], in assay [5] and in [6] was greater than 100 µM throughout. For the same compound, the TGI in assay [7], in assay [8], in [9] and in assay [10] was greater than 100 µM in each case.

Turning to `COc1ccc(-c2nc(-c3nc4ccc(C(F)(F)F)cc4[nH]3)c3ccccn23)cc1`, the GI50 in [1] is 47 µM; in [2] it was 85.3 µM; in assay [3] it was greater than 100 µM; in assay [4], 51.1 µM; in [5] it was greater than 100 µM; in assay [6], greater than 100 µM. The GI50 was greater than 100 µM in assay [7], 50.6 µM in assay [8], greater than 100 µM in assay [9] and greater than 100 µM in assay [10]. Also, the TGI in assay [1], in [2], in [3], in assay [4], in [5] and in assay [6] was greater than 100 µM each time. For the same compound, the TGI in assay [7], in assay [8], in assay [9] and in assay [10] was greater than 100 µM each time.

Turning to `Cn1c2ccccc2c2nnc(NNCc3ccccn3)nc21`, the GI50 in assay [1] is 0.555 µM; in assay [2] it was 0.276 µM; in assay [3] it was 0.318 µM; in assay [4], 0.268 µM; in assay [5] it was 0.325 µM; in [6], 0.675 µM. Further, the GI50 in assay [7] is 0.476 µM; in assay [8], 1.03 µM; in [9] it was 0.248 µM; in assay [10], 0.258 µM. In addition, the TGI in [1] was found to be 14.5 µM; in [2], 3.22 µM; in [3], 3.13 µM; in assay [4] it was 0.98 µM; in assay [5], 7.12 µM; in assay [6], 11.2 µM. Also, the TGI in assay [7] was determined as 11.4 µM; in assay [8], 18 µM; in [9] it was 1.63 µM; in assay [10], 1.98 µM.

`CC(=O)NC1=C(Sc2ccc(Cl)cc2)C(=O)c2ccccc2C1=O`: the TGI turned out to be 4.56 µM in [1]; 6.31 µM in assay [2]; 1.63 µM in assay [3]; 13.3 µM in assay [4]; 7.07 µM in assay [5]; 11.9 µM in assay [6]. The TGI in assay [7] is 3.6 µM; in assay [8], 10.2 µM; in [9], 14.6 µM; in [10], 4.13 µM.
